Reference: patent publication US20230183640A1, “METABOLIC INHIBITORS WITH EFFICACY FOR INHIBITING SULFIDE PRODUCTION IN HARSH ENVIRONMENTS” (MC (US) 3 LLC, priority 2020, published 2023)

How the values were obtained:
Format in all cases: cell-based
[1] = test system: Desulfovibrio alaskensis 14563; experiment: H2S and Log (Growth) efficacy, 10 mL Serum Vial Method
Procedure: A lyophilized Desulfovibrio alaskensis 14563, Desulfovibrio longus 51456, and Desulfovibrio gabonensis 700201 pure cultures received from ATCC were resuspended individually in 500 ul of MB 1250. Aseptically, the content was transferred to a 5-mL tube of MB1250 medium. The cultures were incubated in an anaerobic chamber at 30° C. for 72 hrs. Subsequently, an individual stock culture with a final concentration of 25% glycerol were prepared by adding equal volumes of culture and 50% glycerol. 1 ml of the cultures were then transferred to 2-ml cryogenic vials and stored at −80° C. The purity of the stock cultures was evaluated through PCR, by amplifying the 16S rDNA region, and thus, it was verified that the original ATCC sample was a pure culture. 48-hour cultures of ATCC Desulfovibrio alaskensis 14563, Desulfovibrio longus 51456, and Desulfovibrio gabonensis 700201 were prepared in an anaerobic chamber. Each culture was prepared as a 1:10 culture by taking 1 milliliter (mL) of a pure culture and inoculating 9 milliliters (mL) of fresh MB1250 media. The Desulfovibrio alaskensis 14563 and Desulfovibrio gabonensis 700201 were all grown at 30° C. and the Desulfovibrio longus 51456 culture was grown at 35° C.
After the 48-hour incubation, 600 microliters (μL) were taken from the Desulfovibrio alaskensis 14563 culture and optical density (OD) was measured using a Thermofisher Spectronic 200 Spectrophotometer at 600 nm. Each culture was diluted to 0.05 OD600 in fresh MB1250 media and 5 mL of culture solution is transferred to 10 mL Vials and compound Cis stock solution is added. In Table 4 and 5, the concentrations of the compound C1 used for the experiments are listed. Each experiment was done with at least three replicates for different treatments and non-treatment controls. At 2 days, 3 days and 5 days, enumeration plates were made, and sulfide samples were taken in triplicate.
The enumerations were done in triplicate having 20 μL taken from each vial and placing them into 3 wells of first row in a 96-well plate. Then, the same serial dilution process was done with the test plate procedure as described in 96-well plate method. These enumerations were read after 7 days of growth at 30° C. in the anaerobic chamber. For the sulfide assay, 9 μL were taken from each vial and placed in 3 wells with 2% zinc acetate. The assay procedure was the same as described in 96-well plate method.

[2] = test system: Klebsiella pneumoniae 13883; experiment: Log (Growth) efficacy in anaerobic conditions, non-SRB bacteria
Procedure: (§1) Enumerations were done at each time point, which included 0 hour, 1 hour, 4 hours and 24 hours. Enumeration plates were made to determine the log growth in each dosed sample. For this process, enumeration plates were prepared by adding 180 μL fresh TSB. 20 μL was taken from each well of the challenge plates and transferred to the enumeration plates using a 20-200 μL multichannel pipette. Enumeration plates were mixed three times using the multichannel pipette and serial diluted down the plate tenfold (20 μL into 180 μL). This serial dilution process was repeated for all challenge plate rows giving a total of 6 enumeration plates. These enumeration plates were read after 24-hours and by counting the number of turbid wells in a row.
(§2) Klebsiella pneumoniae 13883, Enterobacter aerogenes 13048, Escherichia coli 8739, and Enterococcus faecalis 29212 cultures were made by adding one loop from a freezer stock to 10 mL of fresh Phenol Red Media. These were grown anaerobically at 30° C. for 24 hours.
(§3) Following the 24-hour incubation, each culture was diluted to 1:10 in fresh Phenol Red Media. Using these cultures, two deep well plates were prepared. Edge wells were not used due to their inherent variability and evaporation of the media. Each of the components were added at their respective concentrations for a final volume of 250 μL per well. In Table 9, the concentrations of the compound C1 used for the experiments are listed. Each experiment was done with at least three replicates for different treatments and non-treatment controls. Plates were then sealed with a titer-top and incubated at room temperature in anaerobic chamber. Enumerations were conducted at 0 hour, 1 hour, 4 hours, and 24 hours. The process for these enumerations was the same as that done for example 2; however, utilizing phenol red media instead of tryptic soy broth.

[3] = test system: Enterobacter aerogenes 13048; experiment: as above
Procedure: as §1, §2, §3

O=C(CN1C(=O)c2cccc3cccc(c23)C1=O)NO [C1]
H2S ([1]; 2 days, 0.09 PPM): 233.1 PPM
Log (Growth) ([1]; 2 days, 0.09 PPM): 7.9
H2S ([1]; 2 days, 0.19 PPM): 202.1 PPM
Log (Growth) ([1]; 2 days, 0.19 PPM): 8.0
H2S ([1]; 2 days, 0.38 PPM): 170.4 PPM
Log (Growth) ([1]; 2 days, 0.38 PPM): 7.8
H2S ([1]; 2 days, 0.75 PPM): 121.6 PPM
Log (Growth) ([1]; 2 days, 0.75 PPM): 7.2
H2S ([1]; 3 days, 0.75 PPM): 190.2 PPM
Log (Growth) ([1]; 3 days, 0.75 PPM): 7.4
H2S ([1]; 3 days, 1.5 PPM): 50.1 PPM
Log (Growth) ([1]; 3 days, 1.5 PPM): 4.8
H2S ([1]; 3 days, 3.0 PPM): 23.1 PPM
Log (Growth) ([1]; 3 days, 3.0 PPM): 4.0
H2S ([1]; 3 days, 6.0 PPM): 19.2 PPM
Log (Growth) ([1]; 3 days, 6.0 PPM): 0.0
H2S ([1]; 5 days, 0.75 PPM): 253.3 PPM
Log (Growth) ([1]; 5 days, 0.75 PPM): 7.9
H2S ([1]; 5 days, 1.5 PPM): 69.9 PPM
Log (Growth) ([1]; 5 days, 1.5 PPM): 6.2
H2S ([1]; 5 days, 3.0 PPM): 19.5 PPM
Log (Growth) ([1]; 5 days, 3.0 PPM): 1.0
H2S ([1]; 5 days, 6.0 PPM): 15 PPM
Log (Growth) ([1]; 5 days, 6.0 PPM): 0.0
Log (Growth) ([2]; 0 hours, 15.625 PPM): 6.667
Log (Growth) ([2]; 0 hours, 31.25 PPM): 6.667
Log (Growth) ([2]; 0 hours, 62.5 PPM): 6.667
Log (Growth) ([2]; 0 hours, 125 PPM): 6.667
Log (Growth) ([2]; 0 hours, 250 PPM): 6.000
Log (Growth) ([2]; 0 hours, 500 PPM): 6.000
Log (Growth) ([2]; 1 hour, 15.625 PPM): 6.667
Log (Growth) ([2]; 1 hour, 31.25 PPM): 5.667
Log (Growth) ([2]; 1 hour, 62.5 PPM): 5.000
Log (Growth) ([2]; 1 hour, 125 PPM): 3.667
Log (Growth) ([2]; 1 hour, 250 PPM): 4.333
Log (Growth) ([2]; 1 hour, 500 PPM): 4.333
Log (Growth) ([2]; 4 hours, 15.625 PPM): 3.333
Log (Growth) ([2]; 4 hours, 31.25 PPM): 2.000
Log (Growth) ([2]; 4 hours, 62.5 PPM): 2.000
Log (Growth) ([2]; 4 hours, 125 PPM): 1.667
Log (Growth) ([2]; 4 hours, 250 PPM): 2.333
Log (Growth) ([2]; 4 hours, 500 PPM): 2.000
Log (Growth) ([2]; 24 hours, 15.625 PPM): 6.333
Log (Growth) ([2]; 24 hours, 31.25 PPM): 4.667
Log (Growth) ([2]; 24 hours, 62.5 PPM): 5.667
Log (Growth) ([2]; 24 hours, 125 PPM): 1.667
Log (Growth) ([2]; 24 hours, 250 PPM): 0.000
Log (Growth) ([2]; 24 hours, 500 PPM): 0.000
Log (Growth) ([3]; 0 hours, 15.625 PPM): 6.333
Log (Growth) ([3]; 0 hours, 31.25 PPM): 6.667
Log (Growth) ([3]; 0 hours, 62.5 PPM): 6.333
Log (Growth) ([3]; 0 hours, 125 PPM): 6.333
Log (Growth) ([3]; 0 hours, 250 PPM): 6.667
Log (Growth) ([3]; 0 hours, 500 PPM): 6.333
Log (Growth) ([3]; 1 hour, 15.625 PPM): 7.000
Log (Growth) ([3]; 1 hour, 31.25 PPM): 6.333
Log (Growth) ([3]; 1 hour, 62.5 PPM): 7.000
Log (Growth) ([3]; 1 hour, 125 PPM): 6.000
Log (Growth) ([3]; 1 hour, 250 PPM): 5.667
Log (Growth) ([3]; 1 hour, 500 PPM): 5.667
Log (Growth) ([3]; 4 hours, 15.625 PPM): 7.333
Log (Growth) ([3]; 4 hours, 31.25 PPM): 7.000
Log (Growth) ([3]; 4 hours, 62.5 PPM): 4.667
Log (Growth) ([3]; 4 hours, 125 PPM): 5.000
Log (Growth) ([3]; 4 hours, 250 PPM): 5.333
Log (Growth) ([3]; 4 hours, 500 PPM): 5.333
Log (Growth) ([3]; 24 hours, 15.625 PPM): 7.667
Log (Growth) ([3]; 24 hours, 31.25 PPM): 6.667
Log (Growth) ([3]; 24 hours, 62.5 PPM): 6.333
Log (Growth) ([3]; 24 hours, 125 PPM): 6.000
Log (Growth) ([3]; 24 hours, 250 PPM): 6.333
Log (Growth) ([3]; 24 hours, 500 PPM): 6.000
